“And” between values parts separate entries of the source, which are not always exact repeats. Identical values can stand only once.
Columns and labels:
E. coli O157:H7 [1] = test: Microbiological quality of wash water after spraying inoculated beef and pork (Example 9); type: cell-based; settings: for log10 (remaining): 30 second spray 50 psi; for log10 reduction: vs city water control
Description: (§1) The microbiological efficacy of the HOBr derived from NaOCl/HBr and the HOBr from DBDMH were compared against a culture of E. coli O157:H7 bacteria that was sprayed onto the surface of beef and pork meat.
(§2) Meat processing facilities commonly treat beef and pork with antimicrobial solutions for about 30 seconds by spraying the beef and pork carcasses and trim with the solution in a spray cabinet. To simulate this process, a small spray cabinet was constructed for the study. A 30-gallon, open-headed drum was equipped with three ½ inch PVC section of pipe that were vertically oriented and positioned 120 degrees apart. Each section of pipe had two spay nozzles four inches apart positioned to form a spray zone in the center of the drum. An air-assisted diaphragm pump was used to deliver the test solution into the three ½ inch PVC pipe sections and through the nozzles. A regulator on the air pump was used to adjust the pressure of the spray as necessary.
(§3) A stock solution of a field strain of E. coli O157:H7 was incubated at 35° C. for four days in Sigma Nutrient Broth for microbial culture. Three daily, consecutive transfers of the inoculums were made to ensure that a sufficient concentration of E. coli O157:H7 was available for the study. The broth and bacteria mixture was then centrifuged leaving the E. coli O157:H7 to be re-suspended in approximately 500 ml Butterfield's Buffer. The E. coli O157:H7 buffer solution was serially diluted and plated on 3M Petrifilm E. coli plates, incubated at 35° C. for 48 hours where it was determined that the E. coli O157:H7 population was 6.76×10^7 CFU/ml or log10 7.83.
(§4) In summary: • Beef— • a) Control: Three beef pieces—city water • b) DBDMH: Three beef pieces—288 ppm Br2 • c) NaOCl/HBr: Three beef pieces—279 ppm Br2 • Pork— • a) Control: Three pork pieces—city water • b) DBDMH: Three pork pieces—288 ppm Br2 • c) NaOCl/HBr: Three pork pieces—279 ppm Br2
(§5) During the 30 second spray, a piece of meat was held by a hook and moved up and down in the spray zone of the spray cabinet with rotation to ensure even distribution of the solution over the surface. The spray pressure was set at 50 psi.
Immediately after each piece was sprayed, a sample of the wash solution was taken from the bottom of the spray cabinet drum for microbial analysis. The solutions were plated on 3M Petrifilm E. coli plates and incubated at 35° C. for 48 hours.

E. coli O157:H7 [2] = test: Surface-associated bacteria remaining on beef and pork after 30 second spray (Example 9); type: cell-based; settings: for log10 (remaining): 30 second spray 50 psi, DBDMH 288 ppm Br2, NaOCl/HBr 279 ppm Br2; for % reduction / log10 reduction: vs city water control
Description: as §1, §2, §3
The type of beef used was chuck roast, which was cut into nine equal pieces. The average weight of beef piece used in this portion of the study was 257.1 g. Nine boneless pork chops of average weight of pork 142.9 g were used.
as §4, §5
After spraying, each meat piece was gently shaken three times to remove excess liquid and returned to a new, sterile bag containing 200 g of city water. The bag was sealed and then vigorously agitated manually for one minute to dislodge any viable surface-associated bacteria from the meat and into the aqueous phase. The water was then plated using 3M Petrifilm E. coli plates and incubated at 35° C. for 48 hours, after which the plates were enumerated. All plating for E. coli was performed within five minutes of completing the spray.

[3] = Octanol-Water Partition Coefficient of HOBr (Example 13); type: physicochemical
Method: In order to quantify the lipophilicity of HOBr solutions prepared from NaOCl-activated HBr, the Octanol-Water Partition Coefficient was determined.
The Octanol-Water Partition Coefficient is defined as:
Pow=Octanol-Water Partition Coefficient. Commonly the logarithm of this number is reported as Log Pow
A high concentration of a HOBr solution was prepared by introducing sufficient NaOCl to activate 3.34 ml 48% HBr in 900 ml RO water until the pH was 7.23. By iodometric titration, the solution was determined to contain 5625 ppm as Br2. The slightly yellow activated solution (25 ml) was poured into an Erlenmeyer flask containing octanol (25 ml). This was mixed for two minutes using a high-speed magnetic stirrer after which the two phases were allowed to separate. All of the yellow color had phase-separated into the top octanol layer. […] The Pow was calculated to be 1.97. This was repeated for lower concentrations of HOBr by preparing a stock solution of 300 ppm as Br2 using 0.2 ml 48% HBr in 900 ml RO water and adding sufficient NaOCl bleach until the pH was 7.33. From the 300 ppm as Br2 stock solution, solutions of 200 and 100 ppm as Br2 were prepared.
A saturated solution of DBDMH was prepared by slurrying DBDMH (1 g) powder in RO water (99 g) and stirring rapidly for 20 minutes. Undissolved solids were removed by gravity filtration. By iodometric titration, the solution was determined to contain 1170 ppm as Br2. The DBDMH solution (25 ml) was poured into an Erlenmeyer flask containing octanol (25 ml). This was mixed for two minutes using a high-speed magnetic stirrer after which the two phases were allowed to separate. […] The Pow was calculated to be 0.808. The 1170 ppm as Br2 stock solution was then used to prepare solution of 300, 200 and 100 ppm as Br2 solutions.

[4] = test system: Salmonella typhimurium (ATCC 14028); test: Surface-associated bacteria remaining on chicken after 40 minute chilled immersion (Example 11); type: cell-based; settings: chicken halves
Method: Most poultry processing facilities cool the product by submerging it for 30-60 minutes in a chiller tank containing an antimicrobial chemical. The chilled water solution is typically around 35° F. (Food Contact Notification, nos. 334 and 453). Therefore, the microbiological efficacy of the HOBr derived from NaOCl-activated HBr and the HOBr from DBDMH were compared by immersing chickens inoculated with a culture of Salmonella typhimurium (ATCC 14028) bacteria. An inoculum was prepared in the same manner as described in Example 10. This time the inoculum yielded a Salmonella typhimurium population of 3.78×10^8 CFU/ml, or log10 8.58. This was then sprayed onto both sides of the chicken halves and left to marinate for two hours. The average weight of the whole chicken used in this portion of the study was 5.20 lbs.
Each test solution was made with chilled water immediately prior to use. For each test solution and the control, two chicken halves were placed in a plastic storage bin containing one quart of test solution. A sterilized ice pack was placed in the bin to accompany the chicken and maintain water temperature. The chicken halves were allowed to sit in the chilled solution for 40 minutes at 35° F., and were turned every five minutes while gently agitating the storage bin. All containers were covered using aluminum foil to prevent degradation of the active ingredients by UV light.
In summary: • a) Control: Two chicken halves—city water • b) DBDMH: Two chicken halves—95 ppm as total bromine • c) NaOCl/HBr: Two chicken halves—100 ppm as total bromine
After spraying, each chicken half was gently shaken three times to remove excess liquid and returned to a new, sterile bag. 300 g of city water was introduced to the bag and the bag was tumbled vigorously for one minute to dislodge viable surface-associated Salmonella bacteria. The water left at the bottom of the bag was plated using 3M Petrifilm Enterobacteriaceae Plates and incubated at 35° C. for 24 hours, upon which the plates were enumerated.

[5] = test system: Salmonella typhimurium (ATCC 14028); test: Surface-associated bacteria remaining on chicken after 30 second spray (Example 10); type: cell-based; settings: chicken halves
Description: In the processing of poultry, birds that are deemed by the USDA inspectors to have undesirable levels of fecal contamination are directed to a dedicated cabinet where they are sprayed with an antimicrobial solution. If the fecal contamination were not removed, birds harboring the pathogenic Salmonella organism would enter the human food chain. Therefore, the microbiological efficacy of the HOBr derived from NaOCl/HBr and the HOBr from DBDMH were compared on chicken inoculated with a culture of Salmonella typhimurium (ATCC 14028) bacteria.
A stock solution of Salmonella typhimurium (ATCC 14028) was incubated at 35° C. for four days in Sigma Nutrient Broth for microbial culture. Three daily, consecutive transfers of the inoculums were made to ensure that a sufficient concentration of Salmonella typhimurium was available for the study. The broth and bacteria mixture was then centrifuged leaving the Salmonella typhimurium to be re-suspended in approximately 500 ml Butterfield's Buffer. The Salmonella buffer solution was serially diluted and plated on 3M Petrifilm Enterobacteriaceae Plates, incubated at 35° C. for 24 hours where it was determined that the Salmonella typhimurium population was 2.34×10^8 or log10 8.37 CFU/ml (colony forming units per milliliter).
Three whole, uncooked chickens were purchased from a local grocer. The average weight of the whole chickens was 5.30 pounds. The organs were removed from each chicken and subsequently, each chicken was cut evenly in half down the back leaving six equal halves which contained a back, breast, thigh and leg. The chicken halves were then patted dry with a paper towel, sprayed liberally on all sides and marinated with Salmonella typhimurium—Butterfield's Buffer solution inoculums for two hours, turning occasionally.
The six chicken pieces were introduced to the spray cabinet used in Example 9. […] The concentration of HOBr was measured prior to spraying the meat pieces by using a HACH DR/700 Colorimeter and HACH 10 ml DPD Total Chlorine pillow packets. […]

[6] = Relative stability (decay) of HOBr from NaOCl-activated HBr vs DBDMH, 600 ppm as bromine (Example 4); type: physicochemical; settings: HOBr 600 ppm as bromine; stored in the dark; 70-75° F.
Method: The relative stability of HOBr derived from NaOCl-activated HBr and HOBr derived from DBDMH was compared side-by-side. A solution of HOBr (600 ppm as bromine) was used in the comparison because this is the amount of bromine that typically exits the commercial DBDMH feeders when the solid product is dissolved. The activity of the solutions was measured using the DPD Total chlorine colorimetric method. Solutions were stored in the dark to prevent photodegradation due to UV light exposure. The temperature ranged from 70-75° F. for the duration of the test.
The HOBr decay profiles for the 600 ppm (as bromine) solutions derived from NaOCl-activated HBr solution and DBDMH solution are plotted in FIG. 2.
Graphs of ln(Co/Ct) where Co is the initial concentration of HOBr and Ct is the concentration at day t were close to straight lines for both the DBDMH and NaOCl-activated HBr derived solutions. (the regression analysis correlation coefficient, R^2 values were close to 1). The R^2 value for the DBDMH and the NaOCl-activated HBr solutions were 0.9251 and 0.9302, respectively. […]
The half-lives of HOBr from the HBr-activated solution and the DBDMH solution were calculated by […]—the natural logarithm (ln) of 2.

[7] = Concentration HOBr (as Br2) 100
[8] = Concentration HOBr (as Br2) 200
[9] = Concentration HOBr (as Br2) 300
[10] = Concentration HOBr (as Br2) 1170 (saturated solution)
[11] = immersion 40 minutes, vs city water control
[12] = 30 second spray, vs city water control

## CC1(C)C(=O)N(Br)C(=O)N1Br [DBDMH, 1,3-dibromo-5,5-dimethylhydantoin]
E. coli O157:H7 [1]; beef, DBDMH 288 ppm Br2, NaOCl/HBr 279 ppm Br2, control 5.01
  log10 (remaining): 0.48 log10
E. coli O157:H7 [1]; beef
  log10 reduction: 4.53 log10
E. coli O157:H7 [1]; pork, DBDMH 288 ppm Br2, NaOCl/HBr 279 ppm Br2, control 5.18
  log10 (remaining): 0.99 log10
E. coli O157:H7 [1]; pork
  log10 reduction: 4.19 log10
E. coli O157:H7 [2]; on beef, control 6.15
  log10 (remaining): 5.56 log10
E. coli O157:H7 [2]; on beef
  % reduction: 74.30%
  log10 reduction: 0.59 log10
E. coli O157:H7 [2]; on pork, control 6.43
  log10 (remaining): 5.71 log10
E. coli O157:H7 [2]; on pork
  % reduction: 80.95%
  log10 reduction: 0.72 log10
[3]; [7]
  Concentration in aqueous phase after partitioning into octanol: 19.125 ppm as Br2
  Pow HOBr: 0.645
[3]; [8]
  Concentration in aqueous phase after partitioning into octanol: 34.99 ppm as Br2
  Pow HOBr: 0.719
[3]; [9]
  Concentration in aqueous phase after partitioning into octanol: 50.74 ppm as Br2
  Pow HOBr: 0.731
[3]; [10]
  Concentration in aqueous phase after partitioning into octanol: 159.7 ppm as Br2 and 157.5 ppm as Br2
  Pow HOBr: 0.808
[4]; immersion 40 minutes at 35° F., DBDMH 95 ppm, NaOCl/HBr 100 ppm as total bromine, control 6.54
  log10 (remaining): 6.25 log10 CFU/ml
[4]; [11]
  % reduction: 48.71%
  log10 reduction: 0.29 log10 CFU/ml
[5]; 30 second spray 40 psi, DBDMH 295 ppm, NaOCl/HBr 275 ppm as total bromine, control 6.15
  log10 (remaining): 5.85 log10 CFU/ml
[5]; [12]
  % reduction: 49.88%
  log10 reduction: 0.30 log10 CFU/ml
[6]
  rate constant of HOBr decay: 0.051 day⁻¹
